Experiment [1] concerns HUVEC. Description: Analysis of caspase 3 activity in HUVEC deprived of FBS. Format: cell-based, human. Particulars: VEGF 20 ng/ml plus peptide 20 ng/ml, 4 h. As to the method:
HUVE cells (1×10^4/cm2) were incubated in medium without FBS, in the absence or presence of VEGF (20 ng/ml) and QK (5 ng/ml), at 37° C. in a 5% CO2 atmosphere. After 4 h, caspase 3 activity was determined. Results are expressed as mean values of triplicates.
HUVE cells (1×10^4/cm2) were incubated in medium without FBS, in the absence or presence of VEGF (20 ng/ml) and the indicated peptides (20 ng/ml), at 37° C. in a 5% CO2 atmosphere. After 4 h, caspase 3 activity was determined. Results are expressed as mean values of triplicates.
(§1) Analysis of caspase 3 activity—Cells (2×104) were lysed in a buffer containing Hepes 50 mM, DTT 1 mM, EDTA 0.1 mM, NP-40 0.1%, CHAPS 0.1% and protein quantitation determined. Protein aliquots (20 μg) were incubated with 20 μM Ac-DEVD-AMC (Pharmingen, San Diego, Calif.) in a buffer containing Hepes 50 mM, DTT 1 mM, EDTA 0.1 mM, NP-40 0.1%, CHAPS 0.1%, at 37° C. for 3 h. Caspase 3 activity was determined in the cytosolic extracts by analysing the release of 7-amino-4-methylcoumarin (AMC) from N-acetyl-DEVD-AMC (Thornberry N A, et al. Nature 1992; 356:768-74); the release of AMC was monitored in a spectrofluorometer with an excitation wavelength of 380 nm and emission wavelength of 440 nm.
as §1, with “356: 768-74);” for “356:768-74);”

In another experiment the test system is HUVEC cells. Kind of experiment: Binding of fluorescein-conjugated MA peptide to HUVEC cells (flow cytometry). Set-up: species or system human. Here is the method:
HUVE cells (1×10^4/cm2) were incubated with 500 nM MA peptide conjugated with fluorescein and competed with increasing amount of VEGF at 30 min at 4° C. in the dark. Then, cell fluorescence was analyzed by flow cytometry.
(§2) Fluorescence—Cells (3×105) were incubated with saturating amounts of FITC-conjugated and the other indicated reagents, 5 min at 4° C. in the dark. After washing with PBS, the cells were resuspended in PBS and analyzed with a FACScan (Becton Dickinson) flow cytometer.
Binding of MA peptide to HUVEC cells. To verify that MA peptide bound to HUVEC cells, we incubated the cells with MA or a scrambled peptide conjugated with fluorescein and analyze the binding by FACS.

Another experiment concerns ERK1/2 kinase. Kind of experiment: VEGF-induced activation of ERK kinase in HUVEC (western blot). Particulars: VEGF 20 ng/ml plus MA 100 ng/ml, 30 min. Format: cell-based, human. As to the method:
(§3) (a) HUVE cells (1×10^4/cm2) were incubated whit VEGF (20 ng/ml) in the absence or presence of MA peptide (100 ng/ml), in duplicates, for 30 min. Then cell lysates were obtained and analysed in Western blot with anti-phospho-ERK antibody. b) HUVE cells (1×10^4/cm2) were incubated with VEGF (20 ng/ml) in the absence or presence of MA peptide (100 ng/ml), in triplicates, for 24 h, at 37° C. in a 5% CO2 atmosphere. Then FITC-Annexin V binding was analyzed by flow cytometry.
Western blotting. Cell total protein lysates were prepared in sample buffer (2% sodium-dodecyl-sulphate, 10% glycerol, 2% mercaptoethanol and 60 mM Tris-HCl pH 6.8 in demineralized water) on ice. Lysates (25 μg) were run on 12% SDS-PAGE gels and electrophoretically transferred to nitrocellulose. Nitrocellulose blots were blocked with 5% BSA in Tris Buffer Saline Tween-20 (TBST) buffer [20 mM Tris-HCl (pH 7.4), 500 mM NaCl, and 0.01% Tween 20] and incubated with primary antibody in TBST-5% BSA overnight at 4° C. Immunoreactivity was detected by sequential incubation with horseradish peroxidase-conjugated secondary antibody and enhanced chemiluminescence reagents following standard protocols (Amersham Bioscience, UK).
Inhibition of VEGF-induced activation of ERK kinase by MA peptide. […] We therefore investigated whether MA peptide binding to the cells could block ERK activation by VEGF.

In experiment [2] the test system is HUVEC. Description: FITC-Annexin V binding of HUVEC by flow cytometry. The class given is cell-based, human. As to conditions: HUVEC 24 h, VEGF 20 ng/ml plus MA peptide 100 ng/ml. Here is the method:
as §3, §2
Effect of MA peptide on the appearance of annexin V+ cells in cultures with VEGF. Apoptotic cells externalize phosphatidylserine, that is bound by annexin V (Steensma D P, et al., Methods Mol. Med. 2003; 85: 323-32).

The target in the next experiment is T1, KDR (Bos taurus, UniProt A0AAA9SPC9).
T1 construct: we immunoprecipitated total KDR and Flt-1 from BAEC whole extracts; endogenous in cells; host or cells: BAEC (bovine aorta endothelial cells, SV40-immortalized)
T1 sequence (A0AAA9SPC9 20-1356): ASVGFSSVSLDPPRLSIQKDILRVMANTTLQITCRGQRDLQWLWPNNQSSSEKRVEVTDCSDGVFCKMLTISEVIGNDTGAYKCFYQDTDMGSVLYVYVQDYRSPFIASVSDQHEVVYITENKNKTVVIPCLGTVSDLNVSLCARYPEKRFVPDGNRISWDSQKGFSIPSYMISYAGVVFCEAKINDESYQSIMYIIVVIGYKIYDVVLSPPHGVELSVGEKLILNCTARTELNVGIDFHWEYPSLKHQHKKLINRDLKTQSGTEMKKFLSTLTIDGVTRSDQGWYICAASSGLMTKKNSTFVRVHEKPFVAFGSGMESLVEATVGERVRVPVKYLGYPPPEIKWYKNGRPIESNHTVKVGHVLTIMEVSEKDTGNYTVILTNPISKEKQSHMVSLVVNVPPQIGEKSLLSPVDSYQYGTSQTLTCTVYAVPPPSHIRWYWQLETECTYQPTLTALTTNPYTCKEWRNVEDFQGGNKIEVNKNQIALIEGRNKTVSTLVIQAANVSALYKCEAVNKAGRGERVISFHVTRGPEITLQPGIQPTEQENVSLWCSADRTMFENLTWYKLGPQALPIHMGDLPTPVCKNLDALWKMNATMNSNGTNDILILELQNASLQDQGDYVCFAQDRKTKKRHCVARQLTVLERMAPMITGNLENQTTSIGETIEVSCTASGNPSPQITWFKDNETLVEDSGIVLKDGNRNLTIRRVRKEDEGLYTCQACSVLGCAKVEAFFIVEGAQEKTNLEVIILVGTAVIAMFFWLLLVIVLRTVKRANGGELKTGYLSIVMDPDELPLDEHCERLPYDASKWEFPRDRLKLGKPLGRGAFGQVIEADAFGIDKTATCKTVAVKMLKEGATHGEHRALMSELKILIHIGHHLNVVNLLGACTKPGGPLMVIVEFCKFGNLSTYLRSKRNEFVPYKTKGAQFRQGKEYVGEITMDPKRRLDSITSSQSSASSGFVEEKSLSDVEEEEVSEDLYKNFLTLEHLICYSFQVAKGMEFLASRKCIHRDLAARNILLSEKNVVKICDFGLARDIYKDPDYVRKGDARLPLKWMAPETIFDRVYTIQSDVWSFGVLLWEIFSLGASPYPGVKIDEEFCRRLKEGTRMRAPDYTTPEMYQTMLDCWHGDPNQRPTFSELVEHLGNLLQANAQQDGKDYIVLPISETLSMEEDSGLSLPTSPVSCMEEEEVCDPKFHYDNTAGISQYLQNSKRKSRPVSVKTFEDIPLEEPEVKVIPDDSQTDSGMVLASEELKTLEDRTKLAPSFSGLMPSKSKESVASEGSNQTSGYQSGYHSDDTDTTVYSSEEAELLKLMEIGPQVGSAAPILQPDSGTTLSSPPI
Description: KDR activation (immunoprecipitation, phospho-tyrosine western blot) in BAEC. The class given is cell-based, bovine. Particulars: 15 minutes of exposure. Here is the method:
(§4) VEGF receptors binding and activation. a) VEGF competitive binding on BAEC. 1 μg of membrane protein was plated with QK and [^125I]-VEGF (500000 cpm, 10^−10 M). b) KDR activation. After stimulation total KDR was immunoprecipitated from a whole-cell protein extracts and phospho-tyrosine was visualized by a specific antibody, anti-rabbit HRP-conjugated secondary antibody and standard chemiluminescence. c) Flt-1 activation. After stimulation total Flt-1 was immunoprecipitated from a whole-cell protein extracts and phospho-tyrosine was visualized by specific antibody, anti-rabbit HRP-conjugated secondary antibody and standard chemiluminescence.
(§5) Western blot. Cells were plated on six-well dishes and serum starved overnight. On the next day, cells were treated with different amount of peptide in absence or in presence of VEGF165 for 15 minutes at 37° C. and then dissolved in RIPA-SDS buffer (50 mM Tris-HCl (pH 7.5), 150 mM NaCl, 1% NP-40, 0.25% deoxycholate, 9.4 mg/50 ml sodium orthovanadate, […]). In some experiments, total KDR and Flt-1 were immunoprecipitated from an equal amount of whole-cell protein extracts using protein A/G agarose beads conjugated with antibodies raised against total KDR or Flt-1 (R&D). Proteins from whole-cell extracts or immunocomplexes were resolved by PAGE and transferred to nitrocellulose. […]

Another experiment addresses T2, Flt-1 (Bos taurus, UniProt F1MDD9).
T2 construct: we immunoprecipitated total KDR and Flt-1 from BAEC whole extracts; endogenous in cells; host or cells: BAEC (bovine aorta endothelial cells, SV40-immortalized)
T2 sequence (F1MDD9 1-1251): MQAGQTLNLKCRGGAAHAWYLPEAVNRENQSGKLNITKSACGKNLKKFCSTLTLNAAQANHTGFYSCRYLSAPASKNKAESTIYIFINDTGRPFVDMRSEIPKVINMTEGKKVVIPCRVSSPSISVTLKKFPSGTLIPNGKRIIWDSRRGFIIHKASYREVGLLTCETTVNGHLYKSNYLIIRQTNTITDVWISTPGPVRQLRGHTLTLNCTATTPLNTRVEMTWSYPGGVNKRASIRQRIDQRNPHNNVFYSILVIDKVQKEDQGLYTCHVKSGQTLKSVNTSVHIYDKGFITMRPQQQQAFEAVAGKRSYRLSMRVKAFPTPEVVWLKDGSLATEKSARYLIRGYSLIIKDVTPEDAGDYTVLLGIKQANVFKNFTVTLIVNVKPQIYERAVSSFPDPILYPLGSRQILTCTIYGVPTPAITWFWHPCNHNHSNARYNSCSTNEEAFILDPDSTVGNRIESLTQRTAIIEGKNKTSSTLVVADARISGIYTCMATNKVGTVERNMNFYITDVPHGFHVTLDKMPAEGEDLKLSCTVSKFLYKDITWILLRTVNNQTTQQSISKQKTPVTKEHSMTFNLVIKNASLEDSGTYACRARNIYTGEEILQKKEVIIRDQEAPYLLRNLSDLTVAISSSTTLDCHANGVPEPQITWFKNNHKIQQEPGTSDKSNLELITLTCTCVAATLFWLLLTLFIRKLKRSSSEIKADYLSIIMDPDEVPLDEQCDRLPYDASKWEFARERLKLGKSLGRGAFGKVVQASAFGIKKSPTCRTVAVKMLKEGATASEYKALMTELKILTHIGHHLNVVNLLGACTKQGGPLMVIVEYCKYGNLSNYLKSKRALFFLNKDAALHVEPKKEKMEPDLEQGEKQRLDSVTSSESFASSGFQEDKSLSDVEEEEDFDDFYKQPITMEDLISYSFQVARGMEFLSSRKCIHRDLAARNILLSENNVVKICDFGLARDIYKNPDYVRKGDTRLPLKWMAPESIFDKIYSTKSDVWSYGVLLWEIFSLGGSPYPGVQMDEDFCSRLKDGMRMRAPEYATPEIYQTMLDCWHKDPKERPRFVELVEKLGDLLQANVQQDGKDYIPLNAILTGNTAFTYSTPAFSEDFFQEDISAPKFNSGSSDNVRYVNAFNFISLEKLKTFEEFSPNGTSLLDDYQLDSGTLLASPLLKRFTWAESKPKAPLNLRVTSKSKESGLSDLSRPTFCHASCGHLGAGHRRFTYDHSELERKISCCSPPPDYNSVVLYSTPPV
Description: Flt-1 activation (immunoprecipitation, phospho-tyrosine western blot) in BAEC. Format: cell-based, bovine. As to conditions: 15 minutes of exposure. As to the method:
as §4, §5

Another experiment deals with RB. Kind of experiment: RB phosphorylation (western blot). Format: cell-based, bovine. Particulars: 12 and 18 hours; QK 10^-6 M, VEGF165 100 ng/ml, VEGF 15 10^-6 M. Here is the method:
Effect of QK on cell proliferation. a) DNA synthesis. BAEC were incubated in DMEM with [^3H]-thymidine and QK in absence or in presence of VEGF165 (100 ng/ml). After 24 hours cells were fixed and lysed. Scintillation liquid was added and [^3H]-thymidine incorporation was evaluated. b) Cell proliferation. BAEC were stimulated with the indicated amount of QK in absence or in presence of VEGF165 (100 ng/ml). Cell number was determined at 24 hours after stimulation. c) RB phosphorylation. p-RB was evaluated at 12 and 18 hours after stimulation with QK (10^-6M), VEGF165 (100 ng/ml) and VEGF 15 (10^−6 M).
Cells proliferation assay. Cells were seeded at a density of 10000 per well in six well plates, serum starved overnight and then stimulated with QK (10-12 to 10^−6 M) in absence or in presence of VEGF165. Cell number was determined at 24 hours after stimulation. The p-RB, was evaluated by western blot 12 and 18 hours after stimulation with QK (10^−6 M), VEGF165 and VEGF 15 (10^−6 M).

The test system of another experiment is WKY rats. Kind of experiment: Ischemic hindlimb model, digital angiographies and blood flow determination. Format: in vivo, rat. Particulars: 14 days.
For experiment [3], the target named is VEGF receptors on bovine aorta endothelial cell (BAEC) membranes. Kind of experiment: displacement of [125I]-VEGF from BAEC membranes (1 ug membrane protein) by QK at 10^-13 to 10^-8 M, gamma counter.

The source of these data is US20090305994A1, “Compounds Modulating Vegf Receptor and Uses Thereof” (priority 2005, published 2009).

No end group written: not given here.

In the case of “KLTWMELYQLAYKGI (KLTWMELYQLAYKGI-NH2) [MA]”, the “effect on VEGF anti-apoptotic activity (caspase 3)” value with HUVEC [1] is listed as “abolished”. In the experiment with HUVEC cells (fluorescein-conjugated peptide, FACS), the “binding to HUVEC cells” value is reported as “specifically bound to the cells in a dose-dependent manner”. The “levels of phosphorylated ERK1/2 kinase with VEGF in the presence of peptide” value in the experiment with ERK1/2 kinase is “highly reduced”. Further, in the experiment with HUVEC [2], the “annexin V+ cells” value is given as above 22%.

For the molecule “KLTWMELYQLKYKGI (KLTWMELYQLKYKGI-NH2) [MK]”, the “effect on VEGF anti-apoptotic activity (caspase 3)” value in the experiment on HUVEC [1] is “partially inhibited the effect of the growth factor”.

As to “VEGF165: Vascular Endothelial Growth Factor, most abundant isoform, 45 KDa glycoprotein (Alexis), positive control in Example 1”, in the experiment with KDR, the phospho-KDR levels entry is reported as “caused the reduction in the levels of phospho-KDR at the membrane”. Moreover, the Flt-1 phosphorylation result with Flt-1 is “increases Flt-1 phosphorylation”. The “phosphorylation of the cyclin RB” value in the experiment with RB is reported as “enhanced phosphorylation of the cyclin RB”. Further, the “BEADS Ischemic to non ischemic” value with WKY rats (dyed beads dilution, muscle ratio, infusion 10^-7 M) came out at 0.97 ± 0.12. Moreover, the “ANGIOGRAPHY Number of TFC” value in the experiment with WKY rats (ischemic hindlimb, chronic intrafemoral artery infusion 10^-7 M) is on record as 18 ± 2.

B1: human recombinant VEGF: Human recombinant VEGF obtained from R&D, used in Example 2 on HUVEC (protein)
chain: APMAEGGGQNHHEVVKFMDVYQRSYCHPIETLVDIFQEYPDEIEYIFKPSCVPLMRCGGCCNDEGLECVPTEESNITMQIMRIKPHQGQHIGEMSFLQHNKCECRPKKDRARQENPCGPCSERRKHLFVQDPQTCKCSCKNTDSRCKARQLELNERTCRCDKPRR
For the molecule B1, the “competition with fluorescein-conjugated MA peptide on HUVEC” value in the experiment with HUVEC cells (500 nM MA peptide, increasing amount of VEGF, 4° C.) is “appeared to compete with MA peptide”.

B2: QK peptide (SEQ ID No.8) (peptide)
peptide: Ac-KLTWQELYQLKYKGI-NH2
For the molecule B2, the Kd in [3] was 316 pM. That is a sub-nanomolar value.
